Common to all, as to assay type: cell-based
In test [1] the test system is Staphylococcus aureus X1.1. The test is described as follows: MIC, standard agar-dilution assay, Staphylococcus aureus X1.1. Particulars: Staphylococcus aureus, X1.1.
The test system of test [2] is Staphylococcus aureus V41. The test is described as follows: MIC, standard agar-dilution assay, Staphylococcus aureus V41. Particulars: Staphylococcus aureus, V41.
The test system of test [3] is Staphylococcus aureus X400. The test is described as follows: MIC, standard agar-dilution assay, Staphylococcus aureus X400. Particulars: Staphylococcus aureus, X400.
The test system of test [4] is Staphylococcus aureus S13E. The test is described as follows: MIC, standard agar-dilution assay, Staphylococcus aureus S13E. Particulars: Staphylococcus aureus, S13E.
Test [5] deals with Staphylococcus epidermidis EPI1. The test is described as follows: MIC, standard agar-dilution assay, Staphylococcus epidermidis EPI1. The conditions noted are these: Staphylococcus epidermidis, EPI1.
Test [6] concerns Staphylococcus epidermidis EPI2. Briefly: MIC, standard agar-dilution assay, Staphylococcus epidermidis EPI2.
The test system of test [7] is Streptococcus pyogenes C203. Briefly: MIC, standard agar-dilution assay, Streptococcus pyogenes C203.
In test [8] the test system is Streptococcus pneumoniae Park I. Briefly: microbe, parasite or virus in culture. The conditions noted are these: Streptococcus pneumoniae Park I; agar dilution; read-out: MIC. A general note: Agar dilution tests growth on a series of plates holding different concentrations.
The test system of test [9] is Streptococcus Group D X66. The test is described as follows: MIC, standard agar-dilution assay, Streptococcus Group D X66.
A further test relates to Streptococcus Group 9960. Briefly: MIC, standard agar-dilution assay, Streptococcus Group 9960. The conditions noted are these: GROUP9960; Streptococcus Group 9960; agar dilution; read-out: MIC.
In test [10] the test system is Haemophilus influenzae Holt. The test is described as follows: MIC, standard agar-dilution assay, Haemophilus influenzae Holt. The conditions noted are these: Haemophilus influenzae Holt; ampicillin-sensitive strain; read-out: MIC.
Test [11] concerns Haemophilus influenzae R252. The test is described as follows: MIC, standard agar-dilution assay, Haemophilus influenzae R252. The conditions noted are these: Haemophilus influenzae R252; ampicillin-resistant strain; read-out: MIC.
For another test, the system named is Staphylococcus aureus. Briefly: MIC, broth-dilution microtiter test, Staphylococcus aureus. The text has this:
(§1) The MIC's in Table X were obtained using conventional broth-dilution microtiter tests.

Another test has as its system Streptococcus bovis 80. The test is described as follows: MIC, broth-dilution microtiter test, Streptococcus bovis 80. Particulars: Streptococcus equinus; Streptococcus bovis 80; broth-dilution microtiter; read-out: MIC.
From the text: as §1

Test [12] has as its system Pasteurella multocida 17E. The test is described as follows: MIC, broth-dilution microtiter test, Pasteurella multocida 17E. The conditions noted are these: Pasteurella multocida 17E; bovine isolate; broth-dilution microtiter; read-out: MIC.
From the text: as §1

Test [13] deals with Pasteurella multocida 60A. The test is described as follows: MIC, broth-dilution microtiter test, Pasteurella multocida 60A. The conditions noted are these: Pasteurella multocida 60A; avian isolate; broth-dilution microtiter; read-out: MIC.
From the text: as §1

For test [14], the system named is Pasteurella hemolytica 22C. The test is described as follows: MIC, broth-dilution microtiter test, Pasteurella hemolytica 22C. Particulars: Pasteurella hemolytica 22C; broth-dilution microtiter; read-out: MIC.
From the text: as §1

In a further test the test system is Mycoplasma gallisepticum. The test is described as follows: MIC, broth-dilution microtiter test, Mycoplasma gallisepticum. Particulars: Mycoplasmoides gallisepticum.
From the text: as §1

For another test, the system named is Mycoplasma synoviae. Briefly: MIC, broth-dilution microtiter test, Mycoplasma synoviae. Particulars: Mycoplasmopsis synoviae.
From the text: as §1

In another test the test system is Mycoplasma hyorhinis. Briefly: MIC, broth-dilution microtiter test, Mycoplasma hyorhinis. Particulars: Mycoplasma hyorhinis; broth-dilution microtiter; read-out: MIC.
From the text: as §1

The subject of the next test is Mycoplasma hyopneumoniae. The test is described as follows: MIC, broth-dilution microtiter test, Mycoplasma hyopneumoniae. Particulars: Mesomycoplasma hyopneumoniae.
From the text: as §1

≈ marks a conversion by molar mass, not a printed value. Where two headings read alike, the source gives them in different places. Where only a bound is given, the exact number is not on record here.

This is an account of results in US4443436A, “C-20-Modified macrolide derivatives of the macrolide antibiotics tylosin, desmycosin, macrocin, and lactenocin” (Eli Lilly and Company, priority 1982, dated 1984).

Take `CCC1OC(=O)CC(O)C(C)C(OC2OC(C)C(OC3CC(C)(O)C(O)C(C)O3)C(N(C)C)C2O)C(CCOc2ccc(C=O)cc2)CC(C)C(=O)C=CC(C)=CC1COC1OC(C)C(O)C(OC)C1OC` (stereo not drawn) [Compound 17, 20-DH-20-O-(p-Formylphenyl)tylosin]: the MIC was 1 µg/mL (≈ 0.978 µM) in test [1]; 1 µg/mL (≈ 0.978 µM) in test [2]; 2 µg/mL (≈ 1.96 µM) in [3]; 1 µg/mL (≈ 0.978 µM) in test [4]; 1 µg/mL (≈ 0.978 µM) in test [5]; 0.5 µg/mL (≈ 0.489 µM) in [6] (Staphylococcus epidermidis, EPI2). The MIC in test [7] (Streptococcus pyogenes, C203) was 1 µg/mL (≈ 0.978 µM); in test [8] it was 16 µg/mL (≈ 15.7 µM); in [9], 128 µg/mL (≈ 125 µM); in the test on Streptococcus Group 9960, greater than 128 µg/mL; in test [10] it was greater than 128 µg/mL; in [11] it was greater than 128 µg/mL. For the same compound, the MIC was 1.56 µg/mL (≈ 1.53 µM) with Staphylococcus aureus; 50 µg/mL (≈ 48.9 µM) in the test with Streptococcus bovis 80; greater than 50 µg/mL in [12]; greater than 50 µg/mL in [13]; greater than 50 µg/mL in [14]; 0.78 µg/mL (≈ 0.763 µM) with Mycoplasma gallisepticum. Also, the MIC against Mycoplasma synoviae was 6.25 µg/mL (≈ 6.11 µM); in the test on Mycoplasma hyorhinis it was greater than 50 µg/mL; with Mycoplasma hyopneumoniae, greater than 25 µg/mL.
Take `CCC1OC(=O)CC(O)C(C)C(OC2OC(C)C(OC3CC(C)(O)C(O)C(C)O3)C(N(C)C)C2O)C(CCOC(C(F)(F)F)C(F)(F)F)CC(C)C(=O)C=CC(C)=CC1COC1OC(C)C(O)C(OC)C1OC` (stereo not drawn) [Compound 19, 20-DH-20-O-[2,2,2-Trifluoro-1-(trifluormethyl)ethyl]tylosin]: the MIC was found to be 4 µg/mL (≈ 3.74 µM) in test [1]; 4 µg/mL (≈ 3.74 µM) in test [2]; 4 µg/mL (≈ 3.74 µM) in [3]; 4 µg/mL (≈ 3.74 µM) in test [4]; 4 µg/mL (≈ 3.74 µM) in [5]; 2 µg/mL (≈ 1.87 µM) in test [6] (Staphylococcus epidermidis EPI2, agar dilution, read-out: MIC). The MIC in [7] (Streptococcus pyogenes C203, agar dilution, read-out: MIC) was 8 µg/mL (≈ 7.49 µM); in [8] it was 32 µg/mL (≈ 30 µM); in test [9] (Streptococcus Group D X66, agar dilution, read-out: MIC), greater than 128 µg/mL; with Streptococcus Group 9960, greater than 128 µg/mL; in test [10] it was greater than 128 µg/mL; in test [11], greater than 128 µg/mL. The MIC against Staphylococcus aureus was 12.5 µg/mL (≈ 11.7 µM); in the test with Streptococcus bovis 80, greater than 50 µg/mL; in test [12] it was greater than 50 µg/mL; in test [13], greater than 50 µg/mL; in test [14] it was greater than 50 µg/mL; in the test on Mycoplasma gallisepticum, 3.12 µg/mL (≈ 2.92 µM). The MIC against Mycoplasma synoviae was 12.5 µg/mL (≈ 11.7 µM); in the test with Mycoplasma hyorhinis, greater than 50 µg/mL; in the test with Mycoplasma hyopneumoniae (Mycoplasma hyopneumoniae, broth-dilution microtiter, read-out: MIC), greater than 25 µg/mL.
